Reference: US11324826B2, “Multifunctional treatment and diagnostic compositions and methods” (priority 2018, dated 2022)
Several values for one entry are separate records, joined by “and”; a condition that tells them apart may be missing. Equal entries are not always repeated.

How the values were obtained:
[1] = in water, prior art literature value; cited from earlier work
BL21 E. coli [2] = assay: In vitro BL21 E. coli growth inhibition in aerobic conditions, visible light versus dark; assay type: cell-based; details: growth recorded after 48 hours
Description: Method to assess bacteria inhibition examined in vitro effects with BL21 E. coli. […] Prior art procedure reported in Photochemistry and Photobiology 2010, 86 (4), 890-894 was followed to grow E. coli cells, even though other prior art procedures can be used. BL21 was selected because of availability. […] Luria Broth (LB)-Lennox formulation were allowed to grow in an incubator at 28° C. shaking at 250 rpm until the beginning of their exponential growth phase (A600=0.2). For each experiment, one milliliter of the E. coli solution was centrifuged and washed with sterile water once. After removing washing liquid, the E. coli solutions were then re-suspended in 500.0 μL of sterile water and 200 μL of stock solutions of each of the following were added: (a) DHN (4.2×10^−44.20×10^−4 M), (b) Juglone (4.2×10^−44.20×10^−4 M), (c) Fe(III) (3.5×10^−4 M) and TMPyP (2.1×10^−52.10×10^−5 M), (d) DHN (4.2×10^−44.20×10^−4 M) and TMPyP (2.1×10^−52.10×10^−5 M), (e) Fe(III) (3.5×10^−4M), DHN (4.2×10^−4 M) and TMPyP (2.1×10^−5 M), (f) Fe(III) (3.5×10^−4 M), Juglone (4.2×10^−4 M) and TMPyP (2.1×10^−5 M), and TMPyP (2.1×10^−5).
Controls of each sample were prepared similarly and kept covered to assure that no light was reacted with the TMPyP while other samples were irradiated in a Rayonet photoreactor for 10 minutes. After irradiation, the 700.0 μL samples were briefly vortexed and then 20.0 μL of each sample was spread evenly over individual petri dishes containing LB agar. The plates were inverted, then incubated at 28° C. for 48 hours.
A “light versus dark” comparison study was performed by introducing treatment composition into two equal concentrations of E. coli bacteria solutions, one E. coli solution was kept in dark while other was irradiated with visible light.
As part of the test, a comparison study, including “light versus dark” was performed of treatment composition (FIG. 22E Fe(III) (3.5×10^−4 M), DHN (4.2×10^−4M) and TMPyP (2.1×10^−5 M), versus FIG. 22A DHN (4.2×10^−4 M), FIG. 22B Juglone (4.2×10^−4 M), FIG. 22C Fe(III) (3.5×10^−4 M) and TMPyP (2.1×10^−5 M), FIG. 22D DHN (4.2×10^−4 M) and TMPyP (2.1×10^−5 M), and FIG. 22F Fe(III) (3.5×10^−4 M), Juglone (4.2×10^−4 M) and TMPyP (2.1×10^−5 M).

BL21 E. coli [3] = assay: In vitro BL21 E. coli growth inhibition in hydrogen peroxide rich environment under dark conditions; assay type: cell-based; details: alone at the experimental concentration (Fe(III) 1.0×10^−4 M or 1.0×10^−3 M; 400 μM H2O2)
Description: To determine utility for treatment of bacteria of the claimed treatment compositions in an aqueous H2O2 rich environment (typical tumor environment), E. coli bacteria were mixed with the treatment composition in the presence of H2O2 in dark conditions under normal room temperature and pressure. […] A series of control reactions were carried out to see if alone, any of Fe(III) ions with 1.0×10^−4 M concentration (FIG. 23A) or Fe(III) ions with 1.0×10^−3 M concentration (FIG. 23B) or 400 μM H2O2 (FIG. 23C) can inhibit the growth of E. coli bacteria under identical reaction conditions.

[4] = Photooxidation of DHN under visible light irradiation in anaerobic (argon purged) solution, DHN absorption monitored at 301 nm; details: for Photooxidation of DHN (in words): anaerobic; for Rate, first order rate constant of DHN photooxidation: anaerobic conditions, visible light, acetonitrile:water (6:4)
Description: First, the treatment composition (DHN+TMPyP+Fe(III)) was compared against commercially available Fe(III)TMPyP and prepared TMPyP+Fe(II), all in presence of DHN, to determine if any or all can produce hydroxyl radical (OH) in anaerobic condition. An aqueous solution of TMPyP and DHN was thoroughly purged with argon followed by irradiation with visible light. DHN's absorption at 301 nm was recorded in 2 minute intervals to monitor in situ production of OH in solution.

[5] = Photooxidation of DHN under visible light irradiation in aerobic solution, DHN absorption monitored at 301 nm; details: for Rate, first order rate constant of DHN photooxidation: aerobic conditions, visible light, acetonitrile:water (6:4)
Description: For a typical experiment, microliter amounts of standard solutions were combined, for illustration not limitation, microliter amounts of a standard solution of Fe(III) solutions (30 μL of 1.0×10^−2 M) and DHN solution (36 μL of 1.0×10^−2 M) added into a cuvette containing 3 mL of solution TMPyP (6.00×10^−6 M). Quartz cuvettes with 1 cm path-length and 3 mL volume were used for all measurements.
For singlet oxygenation of 1,5-dihydroxynaphthalene (DHN) by TMPyP in aqueous solution, a 3 mL solution of DHN (1.2×10^−4 M) and TMPyP (6.0×10^−6 M) was prepared by mixing 36 μL of 1×10^−2 M of DHN standard solution and 18 μL of 1×10^−3 M of TMPyP standard solution with ultrapure water. The solution was prepared at room temperature in an open atmosphere. Photooxygenation of samples was performed in a Rayonet photoreactor and monitored by recording a decrease of UV-vis absorption. For example, photoxygenation of DHN by TMPyP was performed in a Rayonet photoreactor for approximately twenty minutes at 28° C. and the photooxygenation of DHN was monitored by recording a decrease of UV-vis absorption of DHN at 301 nm for 20 minutes in 2 minutes intervals. The effect of metal ions on singlet oxygen generation was studied similarly except with the addition of microliter amounts of M^2+ or M^3+ ions (1×10^−2 M) (positively charged cations with a +2 charge or a +3 charge) into a DHN/TMPyP aqueous solution.

[6] = reported in the prior art; cited from earlier work
[7] = aqueous solution 6.0×10^−6 M, excitation 423 nm, calculated with Equation 3
Description: For fluorescence study, three solutions of 3 mL volume were prepared. Study solution 1 (aqueous solution of TMPyP) was prepared by mixing 18 μL of 1.0×10^−3 M TMPyP with ultrapure water. Study solution 2 (aqueous solution of TMPyP and Fe(III) ions) was made by mixing 18 μL of 1.0×10^−3 M TMPyP and 30 μL of 1.0×10^−2 M iron(III) chloride with ultrapure water. Study solution 3 (aqueous solution of TMPyP and DHN) was prepared by mixing 18 μL of 1.0×10^−3 M TMPyP and 36 μL of 1.0×10^−2 M DHN with ultrapure water. Fluorescence emission was measured upon excitation of each solution at 423 nm with an excitation slit width of 10.0 nm and an emission slit width of 12.0 nm. Each experiment was carried out at room temperature and under normal atmospheric conditions.
Crystal violet (1.0×10^−5 M) with a known ΦF=0.020 in water was used as a standard.
Then the fluorescence quantum yield (ΦF) of TMPyP was calculated by using Equation 3 and crystal violet (1.0×10^−5 M) as a standard with ΦF=0.020 in water, fluorescence quantum yield known from the prior art.
[formula] where in Equation 3, A is the absorbance, F represents the area under the emissions curve, and n is the refractive index of the solvent used.

[8] = aqueous solution, 655 nm CW laser, calculated with Equation 1
Description: Singlet Oxygen Quantum Yield (ΦΔ) of TMPyP was determined using DHN (1.2×10^−4 M) as a singlet oxygen quencher and methylene blue (MB) as a reference standard. A 3 mL solution of TMPyP (6.0×10^−6 M) solution and MB (1.0×10^−5 M) solution both of which contain DHN (1.2×10^−4 M) were prepared. Each solution was irradiated with a 655 nm CW laser and the UV-vis spectrum of each solution was recorded at 1 min intervals for 5 minutes. The quantum yields were calculated with Equation 1 by using ΦΔ(s) of MB (ΦΔ=0.52) reported in the prior art.
[formula] In Equation 1, S is the slope of the plot of the absorbance versus irradiation, and F is the absorption correction factor.
To determine the efficiency of TMPyP for singlet oxygen generation in aqueous solution, ^1O2 quantum yield (ΦΔ) was calculated by using methylene blue as a standard with a known ΦΔ of 0.52. […] Most importantly, the reaction of DHN and ^1O2 can be monitored by observing gradual decrease of the absorption of DHN peaks from 295 nm to 355 nm and so DHN can be used as a ^1O2 probe for ^1O2 quantum yield (ΦΔ) measurement.
Above cited Equation 1 was followed to calculate ^1O2 quantum yield (ΦΔ) for TMPyP, where S is the slope of the plot of the absorbance versus irradiation, and F is the absorption correction factor.

[9] = irradiated with visible light 10 minutes

SMILES: CN(C)c1ccc(C(=C2C=CC(=[N+](C)C)C=C2)c2ccc(N(C)C)cc2)cc1 [Crystal violet]
- Fluorescence quantum yield (ΦF), prior art [1]: 0.020

SMILES: Oc1cccc2c(O)cccc12 [DHN, 1,5-dihydroxynaphthalene]
- Inhibition of E. coli growth (BL21 E. coli [2]; [9]): very marginal inhibition effect
- Inhibition of E. coli growth (BL21 E. coli [2]; kept in dark): almost no inhibition

SMILES: [Cl][Fe]([Cl])[Cl] [Fe(III) ions, iron (III) chloride]
- Inhibition of growth of E. coli, control alone (BL21 E. coli [3]): No noticeable inhibition

SMILES: C[n+]1ccc(C2=C3C=CC(=N3)C(c3cc[n+](C)cc3)=c3ccc4[n]3[Fe+][n]3c2ccc3C(c2cc[n+](C)cc2)=C2C=CC(=N2)C=4c2cc[n+](C)cc2)cc1 [Fe(III)TMPyP, Fe(III) bound meso-tetrakis(N-methyl-4-pyridyl) porphyrin]
- Rate constant k of photo-oxidation of DHN ([4]; anaerobic aqueous environment, FIG. 12): 5.5e-05 s⁻¹
- Rate constant of photooxidation of DHN ([5]; aerobic aqueous environment, FIG. 11): 4.67e-05 s⁻¹
- Rate Constant, kobs, of DHN decay kinetics ([5]; aerobic aqueous solution as printed, DHN 1.2×10^−4 M, porphyrin 6.0×10^−6 M, iron 1.0×10^−4 M, 301 nm): 5.5e-05 s⁻¹

SMILES: OO [H2O2, hydrogen peroxide]
- Inhibition of growth of E. coli, control alone (BL21 E. coli [3]): No noticeable inhibition

SMILES: O=C1C=CC(=O)c2c(O)cccc21 [Juglone, 5-hydroxy-1,4-naphthalenedione]
- Inhibition of E. coli growth (BL21 E. coli [2]; [9]): complete inhibition
- Inhibition of E. coli growth (BL21 E. coli [2]; kept in dark): complete inhibition

SMILES: C[n+]1ccc(-c2c3nc(c(-c4cc[n+](C)cc4)c4ccc([nH]4)c(-c4cc[n+](C)cc4)c4nc(c(-c5cc[n+](C)cc5)c5ccc2[nH]5)C=C4)C=C3)cc1.[Cl-].[Cl-].[Cl-].[Cl-] [TMPyP, meso-tetra(N-methyl-4-pyridyl) porphine tetrachloride]
- Photooxidation of DHN (in words) ([4]; absence of Fe(III) ions, FIG. 13): negligible photooxidation
- Photooxidation of DHN (in words) ([4]; presence of Fe(III) ions, FIG. 14): substantial photooxidation
- Singlet oxygen quantum yield (ΦΔ), prior art [6]: 0.58 and 0.74 and 0.9
- Fluorescence quantum yield (ΦF) [7]: 0.0139
- Maximum rate of photooxidation of DHN by TMPyP (k) ([5]; aerobic, Fe(III) ions about 50 μL of 1.0×10^−2 M): 0.000943 s⁻¹
- Rate constant of DHN photooxidation by TMPyP ([5]; aerobic, metal free solution): 0.000658 s⁻¹
- Rate of photooxidation of DHN by TMPyP (k) ([5]; aerobic, upon addition of 10 μL of 1.0×10^−3 M of Fe(III) ions): 0.00039 s⁻¹
- Rate of photooxidation of DHN by TMPyP (k) ([5]; aerobic, upon addition of 75 μL of 1.0×10^−2 M of Fe(III) ions): 0.000568 s⁻¹
- Fluorescence quantum yield (ΦF), prior art [1]: 0.016
- Singlet oxygen quantum yield (ΦΔ) [8]: 0.503

SMILES: CN(C)c1ccc2nc3ccc(=[N+](C)C)cc-3sc2c1 [methylene blue]
- Singlet oxygen quantum yield (ΦΔ), prior art [6]: 0.52

SMILES: Oc1cccc(-c2c3nc(c(-c4cccc(O)c4)c4ccc([nH]4)c(-c4cccc(O)c4)c4nc(c(-c5cccc(O)c5)c5ccc2[nH]5)C=C4)C=C3)c1 [m−THP, meso-tetra(m-hydroxyphenyl)porphine]
- Rate, first order rate constant of DHN photooxidation [4]: 4e-05 s⁻¹
- Rate, first order rate constant of DHN photooxidation [5]: 0.0012 s⁻¹

SMILES: Oc1ccc(-c2c3nc(c(-c4ccc(O)cc4)c4ccc([nH]4)c(-c4ccc(O)cc4)c4nc(c(-c5ccc(O)cc5)c5ccc2[nH]5)C=C4)C=C3)cc1 [p−THP, meso-tetra(p-hydroxyphenyl)porphine]
- Rate, first order rate constant of DHN photooxidation [4]: 2e-05 s⁻¹
- Rate, first order rate constant of DHN photooxidation [5]: 0.0008 s⁻¹
